Read-outs that look alike come from different tables or passages of the source. One block for each compound: values may come before it.
How the values were obtained:
gelsolin [1] = conditions: equilibrium dialysis, high NaCl concentrations, cited from earlier work
gelsolin [2] = biological target: T1, gelsolin (Homo sapiens, UniProt P06396); assay: Steady-state fluorescence anisotropy of ATP-N binding to gelsolin
T1 construct: His tag (cleaved yes); made in house; host or cells: E. coli Rosetta2 (DE3) pLysS, pSY5 plasmid
Procedure: (§1) His-tagged human wild-type gelsolin was expressed in E. coli strain Rosetta2 (DE3) pLysS cells from a pSY5 plasmid. […] Traces of calcium were removed by dialysis (2 mM Tris-HCl, 1 mM EGTA, pH 7.4, overnight). Rabbit skeletal muscle actin was prepared from acetone powder (Pel-Freez Biologicals) in a protocol modified from Spudich and Watt. Actin was stored in buffer A (2 mM Tris-HCl, 0.2 mM ATP (ATP disodium trihydrate, Sigma-Aldrich), 0.1 mM CaCl2 (pCa 4), 0.1 mM DTT and 0.005% NaN3, pH 7.4). Alexa Fluor^TM 488 C5 Maleimide (Life Technologies) was used to label cysteine residues of gelsolin based on the manufacturer’s recommendations (Thermo Fisher Scientific).
(§2) We used a fluorescent derivative of PIP2 (PtdIns-(4,5)-P2-fluorescein, Cayman Chemicals, NU-10010388, λex = 493 nm, λem = 520 nm, abbreviated as PIP2-F) and a fluorescent derivative of ATP (N^6-(6-amino)hexyl-ATP-ATTO-532, Jena Bioscience, NU-805-532, λex = 532 nm, λem = 553 nm, abbreviated as ATP-N) as probes for the binding of PIP2 and ATP to gelsolin. Fluorescence intensities were measured on a Safire^2 monochromator microplate reader (TECAN) at 22°C. Steady-state fluorescence anisotropy values were determined according to Eq 1 [65], where IVV and IVH, respectively, are the intensities of vertically and horizontally polarized emission on excitation with vertically polarized light, with the correction factor, G, being the ratio of IVH/IVV.
(§3) The dissociation constants for ATP and PIP2 were calculated using a hyperbolic model from anisotropy data that had reached saturation during the gelsolin titrations Eq 2: r=rf+(rb−rf)(Kd+[G]+[L]−(Kd+[G]+[L])^2−4[G][L]/2[L]) (2) where rf is the anisotropy of free ligand, rb is the anisotropy of gelsolin-bound ligand, [L] is the total concentration of ligand, Kd is the dissociation constant and [G] is the total concentration of gelsolin. The anisotropy of 0.5 μM ATP-N was measured in the presence of gelsolin concentrations: 0, 0.2, 1.5, 2, 3, 5 and 8 μM. Saturation was evident at 5 μM characterized by an anisotropy value of 0.15 ± 0.006. The calcium and magnesium sensitivities of ATP binding to gelsolin were characterized by the change in anisotropy of solutions containing 0.5 μM ATP-N in the presence of 5 μM of gelsolin over a range of divalent cation concentrations of pCa 2–12 or pMg 1–12, where pCa and pMg refer to[…]. […] Anisotropy of 0.5 μM or 0.25 μM solutions of PIP2-F in the presence of 5 μM gelsolin was used to probe the changes in binding of the complexes under different calcium, magnesium, salt and ATP conditions.

[3] = Fluorescence emission of ATP-N with cations in the absence of gelsolin (precipitation); assay type: physicochemical
Procedure: Supplementary file pone.0201826.s005.pdf: S5 Fig Assessment of the effects of calcium and ATP on the binding of ATP-N and PIP2-F to gelsolin. (A) Kds were calculated from the fit data with Eq 2 of gelsolin:PIP2-F binding under different calcium concentrations in the absence or presence of ATP. In the absence of ATP, PIP2-F (0.5 μM) binds to gelsolin, as reflected by thehigh affinity, across a wide range of calcium concentrations. […] (B) In the absence of gelsolin, calcium directly precipitates ATP-N (C, open triangles) with a half-maximum value of 70.4 ± 0.7 μM. Magnesium has no effect on the fluorescence emission of ATP-N either in the absence (M, orange circles) or presence of 10 μM calcium (MC, purple squares). Data were fitted with simple sigmoidal curves. (C) The reported FURA-2FF dissociation constant for calcium ions is 25 μM (A.G. Scientific Inc.). The calcium-dependent fluorescence emission profile of FURA-2FF (2 μM) over pCa range of 5–7 was similar in the presence and absence of 20 μM PIP2, which were fitted with simple sigmoidal curves. […] The measurement was carried out with a Perkin Elmer LS-55 spectrofluorimeter (λex = 340 nm, λem = 505 nm). (PDF) Click here for additional data file.

gelsolin [4] = biological target: T1, gelsolin; assay: Steady-state fluorescence anisotropy of PIP2-F binding to gelsolin
Procedure: as §1, §2
as §3, with “Saturation was evident at 5 μM characterized by an anisotropy value of 0.15 ± 0.006.” left out

[5] = set-up: method as in A.G. Scientific Inc.; conditions: ref A.G. Scientific Inc.; read-out: dissociation constant for calcium ions; cited from earlier work
[6] = Critical micelle concentration by dynamic light scattering; assay type: physicochemical
Procedure: tested, PIP2-F was free from micelle formation at concentrations of 0.5 µM or below, whereas […]
Methods: The critical micelle concentrations of PIP2 and 1-(1-octadecanoyl-fluorescein-2R-octadecanoylphosphatidyl)inositol-4,5-bisphosphate (Cayman Chemical, abbreviated as PIP2-F) were determined by dynamic light scattering (Huang et al., 2011). Fifty microliter samples were prepared by serial dilution of PIP2 or PIP2-F into a low salt buffer (2 mM Tris-HCl, pH 7.4), or the same buffer supplemented with 100 mM KCl, 1 mM MgCl2, and/or 1 mM CaCl2. After incubation for 30 min, the samples were centrifuged at 15,000 x g for 10 min, transferred into a 384-well clear bottom plate, and light scattering was measured using a Wyatt Dynapro plate reader at room temperature. The concentrations of PIP2-F were subsequently determined by light absorbance at 494 nm with a Nanodrop spectrophotometer. […]
Huang, W., Jiang, D., Wang, X., Wang, K., Sims, C. E., Allbritton, N. L. and Zhang, Q.

[7] = 0.5 μM ATP-N, 5 μM gelsolin, sigmoidal fitting

T1 sequence (P06396 28-782): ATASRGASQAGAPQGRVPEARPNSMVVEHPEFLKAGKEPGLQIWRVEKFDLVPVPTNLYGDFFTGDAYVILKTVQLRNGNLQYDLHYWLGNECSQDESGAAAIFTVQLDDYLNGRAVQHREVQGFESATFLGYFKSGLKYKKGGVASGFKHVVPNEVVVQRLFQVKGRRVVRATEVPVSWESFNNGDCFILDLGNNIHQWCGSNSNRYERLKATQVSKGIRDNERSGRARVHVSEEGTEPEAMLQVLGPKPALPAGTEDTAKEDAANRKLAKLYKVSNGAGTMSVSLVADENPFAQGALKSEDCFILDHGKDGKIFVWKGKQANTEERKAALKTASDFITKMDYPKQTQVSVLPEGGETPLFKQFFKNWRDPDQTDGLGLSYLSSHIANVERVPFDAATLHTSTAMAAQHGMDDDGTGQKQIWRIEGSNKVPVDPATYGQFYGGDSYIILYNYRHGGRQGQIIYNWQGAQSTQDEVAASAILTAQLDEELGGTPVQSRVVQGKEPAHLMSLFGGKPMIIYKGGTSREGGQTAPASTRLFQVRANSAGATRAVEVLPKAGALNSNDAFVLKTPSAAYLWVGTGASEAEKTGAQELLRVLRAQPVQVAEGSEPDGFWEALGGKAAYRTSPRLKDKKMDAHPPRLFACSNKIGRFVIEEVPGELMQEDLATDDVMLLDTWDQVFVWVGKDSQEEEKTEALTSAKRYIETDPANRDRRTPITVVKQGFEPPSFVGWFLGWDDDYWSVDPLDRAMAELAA

Compound: Nc1ncnc2c1ncn2[C@@H]1O[C@H](COP(=O)(O)OP(=O)(O)O)[C@@H](O)[C@H]1O [ADP]
association with gelsolin (gelsolin [1]): no significant association

Compound: Nc1nc2c(ncn2[C@@H]2O[C@H](COP(=O)(O)OP(=O)(O)O)[C@@H](O)[C@H]2O)c(=O)[nH]1 [GDP]
association with gelsolin (gelsolin [1]): no significant association

Compound: Nc1nc2c(ncn2[C@@H]2O[C@H](COP(=O)(O)OP(=O)(O)OP(=O)(O)O)[C@@H](O)[C@H]2O)c(=O)[nH]1 [GTP]
Kd (gelsolin [1]; read-out: dissociation constant for gelsolin): 1.8 µM

inflection point (pCa) of ATP-N anisotropy decrease (gelsolin [2]; [7]): 5.2
IC50 (gelsolin [2]; 0.5 μM ATP-N, 5 μM gelsolin, read-out: calcium concentration at which 50% of ATP-N remains bound to gelsolin): 6.3 ± 0.2 µM
half-maximum value of calcium for precipitation of ATP-N [3]: 70.4 ± 0.7 µM
Compound: [Ca+2] [calcium]

inflection point (pMg) of ATP-N anisotropy decrease (gelsolin [2]; [7]): 2.3
IC50 (gelsolin [2]; 0.5 μM ATP-N, 5 μM gelsolin, read-out: magnesium concentration at which 50% of ATP-N remains bound to gelsolin): 5000 ± 1100 µM
magnesium concentration above which the ATP effect on gelsolin/PIP2-F is diminished (gelsolin [4]; 0.5 mM ATP, 0.5 μM PIP2-F, 5 μM gelsolin): above 7 mM
effect on the fluorescence emission of ATP-N ([3]; absence or presence of 10 μM calcium): no effect
Compound: [Mg+2] [magnesium]

Compound: FURA-2FF
Kd [5]: 25 µM

anisotropy of ATP-N at saturation (gelsolin [2]; 0.5 μM ATP-N, 5 μM gelsolin): 0.15 ± 0.006
Kd (gelsolin [2]; 0.5 μM ATP-N, absence of divalent cations): 0.71 ± 0.52 µM
Kd (gelsolin [2]; 50 mM KCl, 1 mM MgCl2 (pMg 3), titration with gelsolin): 1.8 µM
Kd (gelsolin [2]; 100 mM KCl): 1.27 ± 0.6 µM
Kd (gelsolin [2]; 100 mM KCl, 1 mM MgCl2 (pMg 3)): 1.58 ± 0.85 µM
Kd (gelsolin [2]; 120 mM KCl): 1.42 ± 0.27 µM
Kd (gelsolin [2]; 120 mM KCl, 1 mM MgCl2 (pMg 3)): 2.34 ± 0.73 µM
Kd (gelsolin [2]; actin polymerization conditions, above 100 μM calcium): 8.05 ± 1.32 µM
Compound: N^6-(6-amino)hexyl-ATP-ATTO-532 [ATP-N]

CMC of PIP2-F ([6]; 1 mM CaCl2 with 100 mM KCl or 100 mM KCl and 1 mM MgCl2): ~ 0.5 μM
CMC of PIP2-F ([6]; absence of calcium): ~ 10 μM
micelle formation ([6]; at or below 0.5 μM, buffer conditions tested): failed to form micelles
steady-state anisotropy of PIP2-F with gelsolin (gelsolin [4]; 0.5 μM PIP2-F, 5 μM gelsolin, no ATP, 1 mM Ca2+ (pCa 3)): 0.04
steady-state anisotropy of PIP2-F with gelsolin (gelsolin [4]; 0.5 μM PIP2-F, 5 μM gelsolin, no ATP, ≈0–10 μM Ca2+ (pCa 15–5)): approximately 0.12
Kd (gelsolin [4]; 0.5 μM PIP2-F, absence of divalent cations, read-out: Kd of PIP2-F for gelsolin): 0.84 ± 0.39 µM
Kd (gelsolin [4]; 100 mM KCl, read-out: Kd of PIP2-F for gelsolin): 1.35 ± 0.7 µM
Kd (gelsolin [4]; 120 mM KCl, read-out: Kd of PIP2-F for gelsolin): 3.12 ± 1.7 µM
Kd (gelsolin [4]; actin polymerization conditions (10 μM Ca2+, 1 mM Mg2+, 50 mM K+), absence of ATP, read-out: Kd of PIP2-F for gelsolin): 2.7 ± 0.2 µM
Kd (gelsolin [4]; no ATP, 1–10 μM calcium (pCa 6–5), absence of KCl and magnesium, read-out: Kd of PIP2-F/gelsolin interaction): < 1 µM
Kd (gelsolin [4]; no ATP, entire calcium range, absence of KCl and magnesium, read-out: Kd of PIP2-F/gelsolin interaction): < 20 µM
Compound: PtdIns-(4,5)-P2-fluorescein [PIP2-F]

Reference: publication PMC6080781, “ATP competes with PIP2 for binding to gelsolin” (PLoS ONE, 2018)
